The results in this text go back to patent US6458806B1, “Aryl alkenamides derivatives as MCP-1 antagonists” (Millennium Pharmaceuticals, Inc., priority 1996, dated 2002).

Broadly, the IC50 is the concentration at which inhibition is half-maximal. Higher therefore signals a need for much substance.

In assay [1] the test system is CD3-Blasts. Briefly: CD3-Blast chemotaxis assay (transendothelial migration to MCP-1). Format: cell-based. To be noted: ECV-304; migration of human CD3-Blasts to about 10 nM MCP-1 across ECV304 endothelial cells, approximately 1 hour. The source says:
CD3—Blast Chemotaxis Assay
Recombinant human MCP-1 was obtained from Peprotech (Rockey Hill, N.J.). T lymphocyte blast cells (CD3-Blasts) were generated by standard protocols (Coligan, J. E., A. M. Kruisbeek, D. H. Macgulies, E. M. Shevach, and W. Strober, editors. 1992. Current Protocols in Immunology. John Wiley and Sons, New York, 7.1.2, 7.10.1-7.10.10). Briefly, human peripheral blood mononuclear cells (PBMC) were isoltated from heparinized venous blood by Percoll density gradient centrifugation (d=1.088) at room temperature. RBCs were removed by hypotonic lysis or Dextran sedimentation. […] CD3-Blast chemotaxis was assessed no sooner than 3 to 4 days after transfer to the IL-2 containing medium using a modification of a transendothelial migration assay (Carr. M. W., S. J. Roth, B. Luther, S. S. Rose, and T. A. Springer. 1994. Monocyte chemoattractant protein 1 acts as a T-lymphocyte chemoattractant. Proc. Natl. Acad. Sci. USA 91:3652-6). […] Background migration was determined by counting cells that migrated in the absence of MCP-1 in the lower chamber. […] The percent inhibition by compounds of directed migration was determined by the following formula: [formula] […]

Assay [2] concerns T cell recruitment to skin DHR sites. The assay is described as follows: Inhibition of T cell recruitment to rat skin inflammatory (DHR) sites. Format: in vivo. How it is done:
Inhibition of T Cell Recruitment to Rat Skin Inflammatory Sites by Compound 1
Inbred, approximately 200 gm, male Lewis rats were used in all experiments. Cutaneous delayed hypersensitivity (DHR) was induced as previously described (1). Briefly, rats were sensitized to KLH (Sigma Chemical Co., St. Louis, Mo.) by administering 50 μg KLH in 0.1 ml complete Freund's adjuvant (CFA; Sigma Chemical Co.) into each of 4 subcutaneous sites. After 14 days, DHR was elicited by the challenge of 5 μg KLH in PBS into multiple intradermal sites on the back. Analysis was performed 24 hours after antigen challenge. For each experiment, there were at least three groups of animals of at least four animals in each group. […]
T cell recruitment at sites of DHR was quantified using methods previously described (1-4). […] The cells in the effluent were highly purified (>95%) rat T cells as assessed by anti-rat CD3 (monoclonal antibody KT3, Biosource International, Camarillo, Calif.) immunoreactivity by flow cytometry. […] Skin challenge sites (8 mm in diameter) were counted on a γ counter 24 hours after injection of radiolabeled T cells. Lung, liver, and spleen were also collected and counted as comparative indices for evaluation of input.
Statistical significance was determined using a paired Student's t-test. […]

Where a name gives a salt, the structure may show the parent alone.

Take `O=C(/C=C/C=C/c1ccc(Cl)c(Cl)c1)NCCCN1CCCCC1` [Example 1, 5-(3,4-Dichloro-phenyl)-penta-2,4-dienoic Acid (3-piperidin-1-yl-propyl)-amide-HCl]: it took 23 µM to reach half-maximal inhibition in assay [1] (IC50). In assay [2] (30 mg/kg per os at time of antigen challenge, 24 hour period, FIG. 2), the “inhibition of T cell recruitment in rat DHR (result in words)” value was “statisticallly significant inhibitory effect”. For the same molecule, the “inhibition of recruitment of 111In-labeled rat T cells to skin DHR sites” value in assay [2] (Lewis rats, 30 mg/kg once per os at time of antigen (KLH) challenge, 24 hours, P<0.05, dose-dependent) is on record as “approximately 80%”.
